Data reported in article PMC7590151, “Chiral Cyclobutane-Containing Cell-Penetrating Peptides as Selective Vectors for Anti-Leishmania Drug Delivery Systems” (International Journal of Molecular Sciences, 2020).

Tested on: Leishmania donovani promastigotes
Assay: Viability of Leishmania donovani promastigotes (MTT reduction)
Type: cell-based
Details: L. donovani promastigotes 20 × 10^6 cells/mL, 4 h, 26 °C, full range of concentrations assayed (comparison 15 vs 16 at 5, 10 and 25 μM)
Experimental: The cellular viability in the presence of the peptides was assessed by the MTT reduction at both stages of the parasite after 4 h incubation (Figure 5).
The experiments were carried out with Leishmania donovani promastigotes (MHOM/SI/00/1S-2D strain) and Leishmania pifanoi amastigotes (MHOM/VE/60/Ltrod strain), respectively. Promastigotes were grown at 26 °C in RPMI medium supplemented with 10% of FCS, 2 mM L-glutamine, 20 U/mL unicillin 20 plus 48 µg/mL gentamicin.
The viability assays were carried out using the reduction of MTT as described. The parasites were aliquoted into 96-microwell plates at a final concentration of 20 × 10^6 cells/mL in HBSS supplemented with 10 mM D-glucose. The peptides were incubated for 4 h at the corresponding peptide concentration at 26 °C or 32 °C for promastigotes and axenic amastigotes, respectively. […] The resulting formazan was solubilized with […] (1% final concentration) and read at 595 nm in a Bio-Rad 640 microplate reader.
(a) L. pifanoi axenic amastigotes. […] Axenic Leishmania parasites (20 × 10^6 cells/mL) were incubated with the peptides, and MTT reduction measured immediately after 4 h incubation. […]
Figure 8 Viability of Leishmania donovani promastigotes treated with Dox-conjugates 15 and 16 along with Dox and Dox-TAT. Parasites were incubated with the respective reagents (20 × 10^6 cells/mL, 4 h, 26 °C), and MTT reduction measured afterwards. […]

COc1cccc2c1C(=O)c1c(O)c3c(c(O)c1C2=O)C[C@@](O)(C(=O)CO)C[C@@H]3O[C@H]1C[C@H](N)[C@H](O)[C@H](C)O1 [doxorubicin]
Toxicity towards promastigotes (in words): did not show any toxicity
